Test results taken from paper PMC12910498 (ACS pharmacology & translational science, 2026).
Where two headings read alike, the source gives them in different places.

Legend:
[1] = Phase I metabolic stability in rat liver microsomes (with NADPH); type: in vitro ADME; settings: pH 7.4, presence of NADPH, mean ± SD, n = 3
Experimental: (§1) We evaluated the Phase I metabolic stability of compounds 2−7 and 14−19 using rat and human liver microsomes, as previously described.[45]
(§2) Phase I metabolic stability assays were conducted using rat and human liver microsomes as previously described[45],[70] with minor modifications. In brief, the reactions were carried out with 100 mM potassium phosphate buffer, pH 7.4, in the presence of NADPH regenerating system (1.3 mM NADPH, 3.3 mM glucose 6-phosphate, 3.3 mM MgCl2, 0.4 U/mL glucose-6-phosphate dehydrogenase, 50 μM sodium citrate). Negative controls without cofactors were assessed to determine the non-CYP-mediated metabolism. Compound disappearance was monitored over time using a liquid chromatography and tandem mass spectrometry (LC/MS) method. All reactions were performed in triplicate.
(§3) Chromatographic analysis was performed on a Dionex ultra high-performance LC system coupled with Q Exactive Focus orbitrap mass spectrometer (Thermo Fisher Scientific Inc., Waltham MA). Separation was achieved using Agilent Eclipse Plus column (100 × 2.1 mm^2 i.d.; maintained at 35 °C) packed with a 1.8 μm C18 stationary phase. […] The total run time for each analyte was 6.5 min. Pumps were operated at a flow rate of 0.3 mL/min. The mass spectrometer controlled by Xcalibur software 4.0.27.13 (Thermo Scientific) was operated with a HESI ion source in positive ionization mode. Compounds were identified in the full-scan mode (from m/z 50 to 750) by comparing t = 0 samples with t = 30 min and t = 60 min samples.

[2] = Phase I metabolic stability in human liver microsomes (with NADPH); type: in vitro ADME; settings: pH 7.4, presence of NADPH, mean ± SD, n = 3
Experimental: as §1, §2, §3

[3] = Pharmacokinetics study in rats (plasma and brain); type: in vivo, Sprague−Dawley rats; settings: rat, 5 mg/kg IP; for Kp / half-life / Tmax / AUC / Cmax: Sprague-Dawley; for Kp: brain and plasma, AUC brain/plasma, read-out: brain: Plasma ratio; for Kp / half-life: ip; for peak in vivo brain concentrations expected: from brain Cmax
Experimental: Given their adequate in vitro stability profiles, we next evaluated the in vivo pharmacokinetic profiles of 14, 15, 17, and 18 in rats. Sprague−Dawley rats were dosed with 5 mg/kg (14, 15, 17) or 10 mg/kg (18), i.p., and plasma and brain levels of each drug were measured 0−6 h postdose.
All animal experiments were performed following the protocols evaluated and approved by the Animal Care and Use Committee at Johns Hopkins University (Ethics Approval Number: RA24M403). Pharmacokinetic studies in Sprague−Dawley (SD) rats were conducted according to protocols approved. SD rats obtained from Harlan were maintained on a 12 h light−dark cycle with ad libitum access to food and water. Test compound was administered via i.p. injection at a dose of 10 mg/kg (100% saline vehicle, 10 mL/kg volume). The rats were sacrificed at specified time points (0.25, 0.5 h, 1, 2, 4, and 6 h) post drug administration. For the collection of plasma and brain tissue, animals were euthanized with CO2, and blood samples were collected in heparinized microtubes by cardiac puncture. Brains were dissected and immediately flash-frozen (−80 °C). Blood samples were spun at 2000g for 15 min, and plasma was removed and stored at −80 °C until analysis (as described below).
Quantitation of triazole analogs 14, 15, 17, and 18 was performed using liquid chromatography with tandem mass spectrometry (LC/MS-MS) methods. Briefly, calibration standards were prepared using respective tissue (naïve plasma and brain) with additions of the test compounds. For quantifying the test compounds in the pharmacokinetic samples, plasma samples (20 μL) were processed using a single liquid extraction method by addition of 100 μL of acetonitrile containing internal standard (losartan: 0.5 μM), followed by vortex-mixing for 30 s and then centrifugation at 10,000g for 10 min at 4 °C. Brain tissues were diluted 1:5 w/v with acetonitrile containing losartan (0.5 μm) and homogenized, followed by vortex-mixing and centrifugation at 10,000g for 10 min at 4 °C. A 50 μL aliquot of the supernatant was diluted with 50 μL of water and transferred to 250 μL polypropylene autosampler vials sealed with Teflon caps. Two μL of the sample was injected into the LC/MS/MS system for analysis. Chromatographic analysis was performed using an Accela ultra high-performance system consisting of an analytical pump and an autosampler coupled with a TSQ Vantage mass spectrometer. […] The mobile phase consisted of 0.1% formic acid in acetonitrile and 0.1% formic acid in water with gradient elution, starting with 10% organic phase (from 0 to 1 min) linearly increasing to 95% (from 1 to 2 min), and re-equilibrating to 10% by 3 min. The total run time for each analyte was 3.5 min. Pumps were operated at a flow rate of 0.4 mL/min. […] Plasma concentrations (nmol/mL) as well as brain tissue concentrations (nmol/g) were determined and plots of mean plasma concentration versus time were constructed. Noncompartmental analysis modules in Phoenix WinNonlin version 7.0 (Certara USA, Inc., Princeton, NJ) were used to quantify exposures (AUC0−t) and half-life (t1/2).

D1 = target: T1, D1 (Homo sapiens, UniProt P21728); experiment: PDSP primary screen and secondary assay, D1; type: binding; settings: 10 µM compound
T1 construct: Psychoactive Drug Screening Program (PDSP)
T1 sequence (P21728 whole entry): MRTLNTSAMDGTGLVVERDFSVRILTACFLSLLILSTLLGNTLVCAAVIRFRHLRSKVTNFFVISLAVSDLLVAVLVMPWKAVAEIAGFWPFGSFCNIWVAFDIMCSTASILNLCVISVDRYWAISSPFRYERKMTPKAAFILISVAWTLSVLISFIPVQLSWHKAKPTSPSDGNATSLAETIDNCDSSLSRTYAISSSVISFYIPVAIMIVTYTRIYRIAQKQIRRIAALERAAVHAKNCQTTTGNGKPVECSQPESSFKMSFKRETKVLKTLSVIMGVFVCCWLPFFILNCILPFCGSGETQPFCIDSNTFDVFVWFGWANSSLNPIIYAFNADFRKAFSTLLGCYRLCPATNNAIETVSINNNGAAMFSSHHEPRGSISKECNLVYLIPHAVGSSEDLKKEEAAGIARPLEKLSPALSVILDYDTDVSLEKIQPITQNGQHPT
Description: (§4) Receptor Primary Secondary Primary Secondary Primary Secondary Primary Secondary screen assay screen assay screen assay screen assay […]
(§5) inhibition in primary assessment.

D5 = target: T2, D5 (Homo sapiens, UniProt P21918); experiment: PDSP primary screen, D5; type: binding; settings: 10 µM compound
T2 construct: Psychoactive Drug Screening Program (PDSP)
T2 sequence (P21918 whole entry): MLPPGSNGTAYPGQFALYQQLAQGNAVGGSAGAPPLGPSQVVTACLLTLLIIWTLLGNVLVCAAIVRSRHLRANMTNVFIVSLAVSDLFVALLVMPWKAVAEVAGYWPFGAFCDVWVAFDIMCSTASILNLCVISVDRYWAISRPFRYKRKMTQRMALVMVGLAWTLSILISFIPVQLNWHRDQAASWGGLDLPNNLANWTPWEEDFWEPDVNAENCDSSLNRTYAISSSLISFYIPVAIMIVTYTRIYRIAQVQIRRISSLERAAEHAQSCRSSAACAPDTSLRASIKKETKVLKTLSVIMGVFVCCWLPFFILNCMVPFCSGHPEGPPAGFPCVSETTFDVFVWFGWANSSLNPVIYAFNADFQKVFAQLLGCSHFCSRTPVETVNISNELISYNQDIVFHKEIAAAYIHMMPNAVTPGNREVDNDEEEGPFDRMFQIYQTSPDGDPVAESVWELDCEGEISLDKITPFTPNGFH
Description: as §4, §5

human D2R long isoform = human D2R long isoform (Homo sapiens, UniProt P14416); experiment: DiscoverX PathHunter β-arrestin recruitment assay, D2R
Sequence of human D2R long isoform (P14416 whole entry, canonical isoform): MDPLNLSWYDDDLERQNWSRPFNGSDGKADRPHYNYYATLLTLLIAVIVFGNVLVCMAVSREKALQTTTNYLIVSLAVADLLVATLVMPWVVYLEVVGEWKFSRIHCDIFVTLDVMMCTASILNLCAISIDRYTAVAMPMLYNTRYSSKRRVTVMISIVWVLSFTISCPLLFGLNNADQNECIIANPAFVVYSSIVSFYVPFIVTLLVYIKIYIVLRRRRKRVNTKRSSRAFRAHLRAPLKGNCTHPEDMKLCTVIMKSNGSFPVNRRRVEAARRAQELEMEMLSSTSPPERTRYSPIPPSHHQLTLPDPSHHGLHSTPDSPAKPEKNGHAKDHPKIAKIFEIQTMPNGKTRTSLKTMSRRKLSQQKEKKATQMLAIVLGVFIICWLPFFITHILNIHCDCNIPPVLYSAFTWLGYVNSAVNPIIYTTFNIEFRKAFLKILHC

human D3R = human D3R (Homo sapiens, UniProt P35462); experiment: DiscoverX PathHunter β-arrestin recruitment assay, D3R
Sequence of human D3R (P35462 whole entry): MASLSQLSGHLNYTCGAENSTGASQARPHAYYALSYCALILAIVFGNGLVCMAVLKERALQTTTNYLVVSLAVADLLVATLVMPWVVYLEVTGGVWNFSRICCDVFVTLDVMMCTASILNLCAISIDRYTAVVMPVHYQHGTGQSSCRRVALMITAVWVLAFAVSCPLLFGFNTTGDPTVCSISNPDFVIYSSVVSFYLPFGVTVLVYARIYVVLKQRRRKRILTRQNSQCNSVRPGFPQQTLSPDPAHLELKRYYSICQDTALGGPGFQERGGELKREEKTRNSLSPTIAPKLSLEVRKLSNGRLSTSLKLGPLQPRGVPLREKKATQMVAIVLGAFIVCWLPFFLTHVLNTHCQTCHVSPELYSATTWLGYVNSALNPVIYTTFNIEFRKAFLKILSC

human D4R [4] = target: T3, human D4R (Homo sapiens, UniProt P21917); experiment: DiscoverX PathHunter β-arrestin recruitment assay, D4R; settings: for D4R average activity at the highest tested dose: agonist mode, at 100 μM (Emax ND); for D4R Ant. (%): antagonist mode, EC80 dopamine (1 μM), normalized to spiperone
T3 sequence (P21917 1-419): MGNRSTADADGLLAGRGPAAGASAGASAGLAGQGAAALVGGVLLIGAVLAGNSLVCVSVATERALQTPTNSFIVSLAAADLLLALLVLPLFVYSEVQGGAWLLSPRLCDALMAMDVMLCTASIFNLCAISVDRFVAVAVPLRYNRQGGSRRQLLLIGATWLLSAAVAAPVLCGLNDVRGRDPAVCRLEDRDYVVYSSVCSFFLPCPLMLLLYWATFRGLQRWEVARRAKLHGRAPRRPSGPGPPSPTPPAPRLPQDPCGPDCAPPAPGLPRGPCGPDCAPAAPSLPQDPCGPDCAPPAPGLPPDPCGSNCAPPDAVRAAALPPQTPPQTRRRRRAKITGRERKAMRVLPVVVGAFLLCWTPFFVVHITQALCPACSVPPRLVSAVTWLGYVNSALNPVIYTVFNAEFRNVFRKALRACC

human D4R [5] = target: T3, human D4R; settings: for D4R Ant. (%): cAMP, antagonist mode, 10 μM forskolin and 10 nM dopamine, normalized to spiperone; for Emax: read-out: D4R Emax (%)
[6] = brain, 5 mg/kg, brain, read-out: half-life (h) brain (converted)
[7] = plasma and brain, 5 mg/kg, tissue not specified, read-out: half-life (converted)
[8] = plasma, 5 mg/kg, plasma, read-out: half-life (h) plasma (converted)
[9] = brain, read-out: Tmax (h) brain
[10] = plasma, read-out: Tmax (h) plasma
[11] = antagonist mode, EC80 dopamine (1 μM), normalized to spiperone

Structure (SMILES) | half-life [1] | half-life [2] | Kp ([3]; 5 mg/kg) | half-life [3, 6] | half-life [3, 7] | half-life [3, 8] | Tmax [3, 9] | AUC ([3]; plasma) | Cmax ([3]; plasma) | Tmax [3, 10] | AUC brain ([3]; brain) | peak in vivo brain concentrations expected [3] | inhibition at 10 µM (D1) | inhibition at 10 µM (D5) | IC50 (human D2R long isoform) | D2R Ant (%) (human D2R long isoform; [11]) | EC50 (human D4R [4]) | D4R average activity at the highest tested dose (human D4R [4]) | D4R Ant. (%) (human D4R [4]) | D4R Ant. (%) (human D4R [5]) | also measured
Cc1cccc(-n2cc(CN3CCC(c4ccccc4)CC3)nn2)c1 [Compound 14, 4-Phenyl-1-((1-(m-tolyl)-1H-1,2,3-triazol-4-yl)methyl)-piperidine] | 13.4 ± 0.44 min | 63.3 ± 2.98 min | 0.76 | 0.4 h | ≤ 0.4 h | 0.37 h | 0.25 h | 1.56 ± 0.2 µM·h | 2.89 ± 0.57 µM | 0.25 h | 1.19 ± 0.10 nmol·h/g | greater than 2.8 μM | 20.2% | 16% | 6.09 ± 1.34 µM | 112 ± 3% | > 100 µM | ND (12% at 100 μM) | 93.3 ± 5.9% | 63 ± 2% | Cmax brain ([3]; brain, 5 mg/kg): 2.16 ± 0.21 nmol/g; IC50 (human D3R): 6.3 ± 2.1 µM; D3R Ant. (%) (human D3R; [11]): 81.6 ±0.3%; EC50 (human D4R [5]): 0.0445 ± 0.0174 µM; IC50 (human D4R [5]): 0.0846 ± 0.0156 µM; Emax (human D4R [5]): 30 ± 5%
CCc1cccc(-n2cc(CN3CCN(c4ccccn4)CC3)nn2)c1 [Compound 19, 1-((1-(3-Ethylphenyl)-1H-1,2,3-triazol-4-yl)methyl)-4-(pyridin-2-yl)piperazine] | 28 ± 0.56 min | 37.5 ± 0.68 min |  |  |  |  |  |  |  |  |  |  |  |  |  |  |  |  |  |  | 
O=C(CCCN1CCC2(CC1)C(=O)NCN2c1ccccc1)c1ccc(F)cc1 [Spiperone, reference compound] |  |  |  |  |  |  |  |  |  |  |  |  |  |  |  |  |  |  | 100 ± 0% | 100 ± 0% | D2R Ant (%) (human D2R long isoform): 100 ± 0%
Cc1cccc(-n2cc(CN3CCN(c4ccccn4)CC3)nn2)c1 [Compound 15, 1-(Pyridin-2-yl)-4-((1-(m-tolyl)-1H-1,2,3-triazol-4-yl)-methyl)-piperazine] | 32.9 ± 1.16 min | 61.4 ± 7.27 min | 0.72 | 1.02 h | > 1.1 h | 1.09 h | 0.25 h | 2.65 ± 0.46 µM·h | 3.28 ± 1.26 µM | 0.25 h | 1.91 ± 0.31 nmol·h/g | greater than 1.8 μM | 2.16% | 1.76% | 9.05 ± 2.5 µM | 87.7 ± 2.6% | > 100 µM | ND (14% at 100 μM) | 82.8 ± 3.3% | 40 ± 1% | Cmax brain ([3]; brain): 1.83 ± 0.68 nmol/g; EC50 (human D2R long isoform): > 100 µM; Emax (human D2R long isoform; read-out: D2R Emax (%)): 16.5 ± 9.8%; EC50 (human D3R): 3.6 ± 0.48 µM; Emax (human D3R; read-out: D3R Emax (%)): 110 ± 29%; IC50 (human D4R [4]): 0.31 ± 0.049 µM; EC50 (human D4R [5]): 0.00529 ± 0.00139 µM; IC50 (human D4R [5]): 0.0576 ± 0.00544 µM; Emax (human D4R [5]): 43 ± 6%
